Values of other authors, collected in patent publication US20240189459A1, “METASTABLE-FREE LANTHANIDE BASED CONTRAST AGENTS AND METHOD” (Inventure LLC, priority 2022, published 2024).

Conditions: thermodynamic stability constant of the DOTA complex with the listed metal ion

SMILES	Stability Constant
O=C([O-])CN1CCN(CC(=O)[O-])CCN(CC(=O)[O-])CCN(CC(=O)[O-])CC1.[Eu+3] [Eu^+3]	23.5
O=C([O-])CN1CCN(CC(=O)[O-])CCN(CC(=O)[O-])CCN(CC(=O)[O-])CC1.[Dy+3] [Dy^+3]	24.8
O=C([O-])CN1CCN(CC(=O)[O-])CCN(CC(=O)[O-])CCN(CC(=O)[O-])CC1.[Fe+3] [Fe^+3]	29.4
O=C([O-])CN1CCN(CC(=O)[O-])CCN(CC(=O)O)CCN(CC(=O)O)CC1.[Zn+2] [Zn^+2]	20.8
O=C([O-])CN1CCN(CC(=O)[O-])CCN(CC(=O)[O-])CCN(CC(=O)[O-])CC1.[Gd+3] [Gd^+3]	24.7

Second part, the compound after the results:

Stability Constant	SMILES
11.9	O=C([O-])CN1CCN(CC(=O)[O-])CCN(CC(=O)O)CCN(CC(=O)O)CC1.[Mg+2] [Mg^+2]
24.4	O=C([O-])CN1CCN(CC(=O)[O-])CCN(CC(=O)[O-])CCN(CC(=O)[O-])CC1.[Tm+3] [TM^+3]
17.2	O=C([O-])CN1CCN(CC(=O)[O-])CCN(CC(=O)O)CCN(CC(=O)O)CC1.[Ca+2] [Ca^+2]
23	O=C([O-])CN1CCN(CC(=O)[O-])CCN(CC(=O)[O-])CCN(CC(=O)[O-])CC1.[Pr+3] [Pr^+3]
22.3	O=C([O-])CN1CCN(CC(=O)[O-])CCN(CC(=O)[O-])CCN(CC(=O)[O-])CC1.[Cu+2] [Cu^+2]
4.2	O=C([O-])CN1CCN(CC(=O)O)CCN(CC(=O)O)CCN(CC(=O)O)CC1.[Na+] [Na^+1]
